Data as given in patent US10377718B2, “Apelin receptor (APJ) agonists and uses thereof” (Research Triangle Institute, priority 2014, dated 2019).
pEC50: −log10 of the molar value. Values belong to the compound of their own block, whether it stands above or below them.

Tests used:
[1] = biological target: T1, apelin receptor (APJ) (Homo sapiens, UniProt P35414); test: in vitro apelin agonist activity (methods of Giddings et al., Apelin-13 as positive control); format: cell-based; conditions: apelin agonist activity, Giddings et al. method; read-out: agonist activity (EC50)
T1 sequence (P35414 1-380): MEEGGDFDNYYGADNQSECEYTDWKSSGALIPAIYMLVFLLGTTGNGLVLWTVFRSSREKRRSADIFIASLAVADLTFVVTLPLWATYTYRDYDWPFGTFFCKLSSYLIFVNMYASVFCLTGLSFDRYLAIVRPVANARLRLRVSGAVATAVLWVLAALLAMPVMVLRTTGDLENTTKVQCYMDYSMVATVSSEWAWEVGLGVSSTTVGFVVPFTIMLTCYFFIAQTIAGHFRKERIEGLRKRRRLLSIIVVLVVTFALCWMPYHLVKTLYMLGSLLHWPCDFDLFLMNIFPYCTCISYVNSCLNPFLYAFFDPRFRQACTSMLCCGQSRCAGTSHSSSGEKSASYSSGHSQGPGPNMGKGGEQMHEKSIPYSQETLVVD
Excerpt: The compounds above were studied for their in vitro activity as apelin agonists using the methods described by Giddings et al. Giddings et al., 2010 Int J High Thro Screen. 1:39-47, the contents of which are hereby incorporated by reference in its entirety.

[2] = tested on: C57BL/6 mice; test: in vivo blood pressure lowering activity, non-invasive blood pressure and heart rate after IP injection; set-up: Systolic Baseline / Diastolic Baseline: unit not given here; conditions: for Diastolic Baseline / HR Baseline / Mean pressure Baseline / Systolic Baseline: baseline before dosing; for Diastolic % change / HR % change / Mean pressure % change / Systolic % change: postdose vs baseline; for HR Postdose: in bpm (unit assumed); for Diastolic Postdose / Mean pressure Postdose / Systolic Postdose: in mmHg (unit assumed)
Description: The compounds were also assayed for blood pressure activity using C57BL/6 mice and the procedure described by Tatemoto et al. The novel peptide apelin lowers blood pressure via a nitric oxide-dependent mechanism. Regul Pept. 2001; 99: 87-92. […] Studies have been published citing reductions in blood pressure occur following peptide apelin administration. Apelin-13 was used as a positive control. Knockout C57BL/6 mice lacking APJ have cardiovascular deficiencies. […] Charo et al. Am J Physiol Heart Circ Physiol. 2009 November 297(5):[…] et al. J Physiol Biochem. 2007 December; 63(4):359-73. Blood pressure measurements in these species of mice have been reported in the literature. […] et al. Am J Physiol Heart Circ Physiol. 2003 February; 284(2):[…]-74. On the first day of the study, 11 animals were treated with apelin-13, 11 with vehicle alone, and 11 as sham controls. The two later groups were used to determine effects (if any) of the vehicle or injection alone on blood pressure (BP). The experiment was conducted as follows: The animals were restrained and a baseline measurement taken for 5 min. Animals were injected and immediately monitored for 15 minutes. The effect of test agents should be apparent within this time. Tatemoto et al. reported that the effects of Apelin-13 were apparent within minutes. Tatemoto et al. 2001 Immediately following dosing, blood pressure (diastolic, systolic and mean pressure) and heart rate for each animal was recorded for up to 15 minutes using a Kent Scientific CODA Non-Invasive Blood Pressure System. […] On day 2-5 a similar protocol was used in increasing doses. The animals were randomized daily in three groups of 11 to receive either of the two experimental compounds by IP injection. […] At the end of the 5-day dosing period, all animals were humanely euthanized. [table]

pEC50 [1]: > 5.00
Structure (SMILES): CCCCNC(=O)C[C@H](CC(C)C)NC(=O)c1cc(-c2c(OC)cccc2OC)n(CC(C)C)n1 [compound 143, (S)-N-(1-(Butylamino)-5-methyl-1-oxohexan-3-yl)-5-(2,6-dimethoxyphenyl)-1-isobutyl-1H-pyrazole-3-carboxamide]
Diastolic Baseline ([2]; Day 2, 1 mg/kg IP): 127 | HR Baseline ([2]; Day 2, 1 mg/kg IP): 706 | Mean pressure Baseline ([2]; Day 2, 1 mg/kg IP): 138 | Systolic Baseline ([2]; Day 2, 1 mg/kg IP): 161 | Diastolic % change ([2]; Day 2, 1 mg/kg IP): 1% | HR % change ([2]; Day 2, 1 mg/kg IP): 3% | Mean pressure % change ([2]; Day 2, 1 mg/kg IP): 0% | Systolic % change ([2]; Day 2, 1 mg/kg IP): −1% | HR Postdose ([2]; Day 2, 1 mg/kg IP): 727 | Diastolic Postdose ([2]; Day 2, 1 mg/kg IP): 129 | Mean pressure Postdose ([2]; Day 2, 1 mg/kg IP): 139 | Systolic Postdose ([2]; Day 2, 1 mg/kg IP): 160 | Diastolic Baseline ([2]; Day 3, 3 mg/kg IP): 132 | HR Baseline ([2]; Day 3, 3 mg/kg IP): 665 | Mean pressure Baseline ([2]; Day 3, 3 mg/kg IP): 142 | Systolic Baseline ([2]; Day 3, 3 mg/kg IP): 163 | Diastolic % change ([2]; Day 3, 3 mg/kg IP): −4% | HR % change ([2]; Day 3, 3 mg/kg IP): 15% | Mean pressure % change ([2]; Day 3, 3 mg/kg IP): −4% | Systolic % change ([2]; Day 3, 3 mg/kg IP): −3% | HR Postdose ([2]; Day 3, 3 mg/kg IP): 763 | Diastolic Postdose ([2]; Day 3, 3 mg/kg IP): 127 | Mean pressure Postdose ([2]; Day 3, 3 mg/kg IP): 137 | Systolic Postdose ([2]; Day 3, 3 mg/kg IP): 158 | Diastolic Baseline ([2]; Day 4, 10 mg/Kg IP): 131.3 | HR Baseline ([2]; Day 4, 10 mg/Kg IP): 669.3 | Mean pressure Baseline ([2]; Day 4, 10 mg/Kg IP): 143 | Systolic Baseline ([2]; Day 4, 10 mg/Kg IP): 167.5 | Diastolic % change ([2]; Day 4, 10 mg/Kg IP): −5% | HR % change ([2]; Day 4, 10 mg/Kg IP): 11% | Mean pressure % change ([2]; Day 4, 10 mg/Kg IP): −6% | Systolic % change ([2]; Day 4, 10 mg/Kg IP): −6% | HR Postdose ([2]; Day 4, 10 mg/Kg IP): 745 | Diastolic Postdose ([2]; Day 4, 10 mg/Kg IP): 124.2 | Mean pressure Postdose ([2]; Day 4, 10 mg/Kg IP): 134.8 | Systolic Postdose ([2]; Day 4, 10 mg/Kg IP): 157.1 | Diastolic Baseline ([2]; Day 5, 30 mg/Kg IP): 130 | HR Baseline ([2]; Day 5, 30 mg/Kg IP): 733.9 | Mean pressure Baseline ([2]; Day 5, 30 mg/Kg IP): 141 | Systolic Baseline ([2]; Day 5, 30 mg/Kg IP): 164.1 | Diastolic % change ([2]; Day 5, 30 mg/Kg IP): −9% | HR % change ([2]; Day 5, 30 mg/Kg IP): −2% | Mean pressure % change ([2]; Day 5, 30 mg/Kg IP): −9% | Systolic % change ([2]; Day 5, 30 mg/Kg IP): −8% | HR Postdose ([2]; Day 5, 30 mg/Kg IP): 722.8 | Diastolic Postdose ([2]; Day 5, 30 mg/Kg IP): 118.8 | Mean pressure Postdose ([2]; Day 5, 30 mg/Kg IP): 128.9 | Systolic Postdose ([2]; Day 5, 30 mg/Kg IP): 150.2

pEC50 [1]: > 5.00
Structure (SMILES): COc1cccc(OC)c1-c1cc(C(=O)N[C@H](CC(=O)NC2CCC2)CC(C)C)nn1CC(C)C [compound 173]
Diastolic Baseline ([2]; Day 2, 1 mg/kg IP): 114 | HR Baseline ([2]; Day 2, 1 mg/kg IP): 681 | Mean pressure Baseline ([2]; Day 2, 1 mg/kg IP): 126 | Systolic Baseline ([2]; Day 2, 1 mg/kg IP): 151 | Diastolic % change ([2]; Day 2, 1 mg/kg IP): 3% | HR % change ([2]; Day 2, 1 mg/kg IP): 5% | Mean pressure % change ([2]; Day 2, 1 mg/kg IP): 1% | Systolic % change ([2]; Day 2, 1 mg/kg IP): −1% | HR Postdose ([2]; Day 2, 1 mg/kg IP): 716 | Diastolic Postdose ([2]; Day 2, 1 mg/kg IP): 118 | Mean pressure Postdose ([2]; Day 2, 1 mg/kg IP): 128 | Systolic Postdose ([2]; Day 2, 1 mg/kg IP): 149 | Diastolic Baseline ([2]; Day 3, 3 mg/kg IP): 127 | HR Baseline ([2]; Day 3, 3 mg/kg IP): 661 | Mean pressure Baseline ([2]; Day 3, 3 mg/kg IP): 136 | Systolic Baseline ([2]; Day 3, 3 mg/kg IP): 156 | Diastolic % change ([2]; Day 3, 3 mg/kg IP): 2% | HR % change ([2]; Day 3, 3 mg/kg IP): 12% | Mean pressure % change ([2]; Day 3, 3 mg/kg IP): 2% | Systolic % change ([2]; Day 3, 3 mg/kg IP): 2% | HR Postdose ([2]; Day 3, 3 mg/kg IP): 738 | Diastolic Postdose ([2]; Day 3, 3 mg/kg IP): 129 | Mean pressure Postdose ([2]; Day 3, 3 mg/kg IP): 139 | Systolic Postdose ([2]; Day 3, 3 mg/kg IP): 159 | Diastolic Baseline ([2]; Day 4, 10 mg/Kg IP): 114.9 | HR Baseline ([2]; Day 4, 10 mg/Kg IP): 682.5 | Mean pressure Baseline ([2]; Day 4, 10 mg/Kg IP): 126.3 | Systolic Baseline ([2]; Day 4, 10 mg/Kg IP): 150.5 | Diastolic % change ([2]; Day 4, 10 mg/Kg IP): 4% | HR % change ([2]; Day 4, 10 mg/Kg IP): 10% | Mean pressure % change ([2]; Day 4, 10 mg/Kg IP): 2% | Systolic % change ([2]; Day 4, 10 mg/Kg IP): 0% | HR Postdose ([2]; Day 4, 10 mg/Kg IP): 749.4 | Diastolic Postdose ([2]; Day 4, 10 mg/Kg IP): 119.3 | Mean pressure Postdose ([2]; Day 4, 10 mg/Kg IP): 129.2 | Systolic Postdose ([2]; Day 4, 10 mg/Kg IP): 150 | Diastolic Baseline ([2]; Day 5, 30 mg/Kg IP): 122.2 | HR Baseline ([2]; Day 5, 30 mg/Kg IP): 701.1 | Mean pressure Baseline ([2]; Day 5, 30 mg/Kg IP): 133 | Systolic Baseline ([2]; Day 5, 30 mg/Kg IP): 155.7 | Diastolic % change ([2]; Day 5, 30 mg/Kg IP): −4% | HR % change ([2]; Day 5, 30 mg/Kg IP): 3% | Mean pressure % change ([2]; Day 5, 30 mg/Kg IP): −4% | Systolic % change ([2]; Day 5, 30 mg/Kg IP): −5% | HR Postdose ([2]; Day 5, 30 mg/Kg IP): 721.7 | Diastolic Postdose ([2]; Day 5, 30 mg/Kg IP): 117.5 | Mean pressure Postdose ([2]; Day 5, 30 mg/Kg IP): 127.4 | Systolic Postdose ([2]; Day 5, 30 mg/Kg IP): 148.2
